# In patent publication US20240123078A1, “COMPOUNDS AND METHODS FOR MODULATING IMMUNE-RELATED PROTEINS” (Vividion Therapeutics, Inc., priority 2019, published 2024):
# Columns and labels:
# Assay in all cases: Cysteine reactivity ABPP
# Assay type in all cases: binding
# [1] = target: T1, PFKFB3 6-phosphofructo-2-kinase/fructose-2,6-bisphosphatase 3 C155 (Q16875) (Homo sapiens, UniProt Q16875)
# T1 construct: endogenous in cells; host or cells: primary human T cells
# Experimental: (§1) Activated or expanded primary human T cells were re-suspended in RPMI (1×10^6 cells/mL) containing 10% fetal bovine serum (FBS), penicillin (100 U/mL), streptomycin ([…]), and L-glutamine (2 mM). The cells were treated with DMSO or compounds for 3 h, pelleted (524 g, 5 min), washed with PBS, and lysed by sonication (2×8 pulses). Soluble and particulate proteomic fractions were separated by ultracentrifugation (100,000 g, 45 min), and protein concentration was normalized to 1.7 mg/mL using a standard DC protein assay (Bio-Rad). The resulting proteomes were analyzed by competitive isotopic Tandem Orthogonal Proteolysis Activity-Based Protein Profiling (isoTOP-ABPP).
# (§2) The heavy/light isoTOP-ABPP ratios (R values) for each unique peptide (DMSO/compound treated) were quantified with in-house CIMAGE software (Weerapana et al., 2010) using default parameters (3 MS1 acquisitions per peak and signal to noise threshold set to 2.5). Site-specific engagement of cysteine residues was assessed by blockade of IA-alkyne probe labeling. […] Ratios for unique peptide sequences were calculated for each experiment; overlapping peptides with the same modified cysteine (e.g., different charge states, elution times or tryptic termini) were grouped together and the median ratio was reported as the final ratio (R). Additionally, ratios for peptide sequences containing multiple cysteines were grouped together. When aggregating data across experimental replicates, the mean of each experimental median R was reported. The peptide ratios reported by CIMAGE were further filtered to ensure the removal or correction of low-quality ratios in each individual dataset. The quality filters applied were the following: removal of half-tryptic peptides, removal of peptides with more than one tryptic miscleaved, removal of peptides with R=20 and only a single MS2 event triggered during the elution of the parent ion, removal of non-unique peptides. Further filtering was then performed as described below for each experiment type.
# (§3) Samples (500 μL, 1.7 mg/mL) were treated with iodoacetamide desthiobiotin (IA-DTB, 5 μL of 10 mM stock in DMSO, final concentration: 100 μM) for 1 h at ambient temperature. Ice-cold MeOH (500 μL) and CHCl3 (200 μL) were then added, the mixture was vortexed and centrifuged (10,000 g, 10 min, 4° C.) to afford a protein disc at the interface of CHCl3 and aqueous layers. Both layers were aspirated without perturbing the disk, which was re-suspended in cold methanol (500 μL) and CHCl3 (200 μL) by sonication. The proteins were pelleted (10,000 g, 10 min, 4° C.), and the resulting pellets were re-suspended in a buffer (90 μL) containing 9M urea, 10 mM DTT and 50 mM triethylammonium bicarbonate ( 1/20 dilution of 1.0 M stock solution, pH 8.5) by thorough pipetting up and down. The resulting mixture was heated at 65° C. for 20 min. Sample was cooled to room temp, iodoacetamide (10 μL, 500 mM solution in H2O) was added, and the samples were incubated at 37° C. for 30 min with shaking.
# (§4) At individual TMT experiment level, the following filters were applied to remove low-quality peptides: removal of non-unique peptides; removal of half-tryptic peptides; removal of peptides with more than one internal miscleaved site; removal of peptides with low (<10,000) sum of reporter ion intensities for control channels, and peptides with high variation between the replicate control channels (coefficient of variance >0.5). R values (compound-treated vs. DMSO-treated) for each peptide entry were calculated using the reporter ion intensities of DMSO and compound treated TMT channels for each treatment group with a maximum ratio cap of 20. […]
# [2] = target: T2, ATP2A2 Sarcoplasmic/endoplasmic reticulum calcium ATPase 2 C997 (P16615) (Homo sapiens, UniProt P16615)
# T2 construct: endogenous in cells; host or cells: primary human T cells
# Experimental: as §1, §2, §3, §4
# [3] = target: T3, PTPN11 Tyrosine-protein phosphatase non-receptor type 11 C259 (Q06124) (Homo sapiens, UniProt Q06124)
# T3 construct: endogenous in cells; host or cells: primary human T cells
# T3 sequence (Q06124 1-593): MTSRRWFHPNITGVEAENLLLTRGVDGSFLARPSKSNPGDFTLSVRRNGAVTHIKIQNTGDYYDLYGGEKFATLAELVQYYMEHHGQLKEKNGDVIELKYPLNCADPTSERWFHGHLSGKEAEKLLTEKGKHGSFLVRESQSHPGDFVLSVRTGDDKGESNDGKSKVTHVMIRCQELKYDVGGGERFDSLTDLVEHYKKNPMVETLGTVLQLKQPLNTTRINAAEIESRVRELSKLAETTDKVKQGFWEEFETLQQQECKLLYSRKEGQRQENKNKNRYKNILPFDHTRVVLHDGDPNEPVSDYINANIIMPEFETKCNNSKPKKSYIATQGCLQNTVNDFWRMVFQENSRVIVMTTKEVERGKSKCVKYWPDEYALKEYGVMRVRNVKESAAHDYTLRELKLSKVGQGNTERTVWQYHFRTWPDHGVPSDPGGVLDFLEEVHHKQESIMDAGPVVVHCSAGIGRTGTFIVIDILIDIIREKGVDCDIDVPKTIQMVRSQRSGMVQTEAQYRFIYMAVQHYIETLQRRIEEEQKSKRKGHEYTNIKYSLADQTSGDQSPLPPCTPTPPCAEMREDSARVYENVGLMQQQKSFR
# Experimental: as §1, §2, §3, §4
# [4] = target: T4, TRANK1 TPR and ankyrin repeat-containing protein 1 C1319 (O15050) (Homo sapiens, UniProt O15050)
# T4 construct: Soluble and particulate proteomic fractions were separated by ultracentrifugation; endogenous in cells; host or cells: primary human T cells
# Experimental: as §1, §2, §3, §4
# [5] = target: T5, TYK2 Non-receptor tyrosine-protein kinase TYK2 C838 (P29597) (Homo sapiens, UniProt P29597)
# T5 construct: endogenous in cells; host or cells: primary human T cells
# Experimental: as §1, §2, §3, §4
# [6] = target: T6, STAT3 Signal transducer and activator of transcription 3 C259 (P40763) (Homo sapiens, UniProt P40763)
# T6 construct: endogenous in cells; host or cells: primary human T cells
# Experimental: as §1, §2, §3, §4
# [7] = target: T7, STAT3 Signal transducer and activator of transcription 3 C712, C718 (P40763) (Homo sapiens, UniProt P40763)
# T7 construct: endogenous in cells; host or cells: primary human T cells
# Experimental: as §1, §2, §3, §4
# [8] = target: T8, PELP1 Proline-, glutamic acid- and leucine-rich protein 1 C71 (Q8IZL8) (Homo sapiens, UniProt Q8IZL8)
# T8 construct: endogenous in cells; host or cells: primary human T cells
# Experimental: as §1, §2, §3, §4
# T5 sequence (P29597 whole entry): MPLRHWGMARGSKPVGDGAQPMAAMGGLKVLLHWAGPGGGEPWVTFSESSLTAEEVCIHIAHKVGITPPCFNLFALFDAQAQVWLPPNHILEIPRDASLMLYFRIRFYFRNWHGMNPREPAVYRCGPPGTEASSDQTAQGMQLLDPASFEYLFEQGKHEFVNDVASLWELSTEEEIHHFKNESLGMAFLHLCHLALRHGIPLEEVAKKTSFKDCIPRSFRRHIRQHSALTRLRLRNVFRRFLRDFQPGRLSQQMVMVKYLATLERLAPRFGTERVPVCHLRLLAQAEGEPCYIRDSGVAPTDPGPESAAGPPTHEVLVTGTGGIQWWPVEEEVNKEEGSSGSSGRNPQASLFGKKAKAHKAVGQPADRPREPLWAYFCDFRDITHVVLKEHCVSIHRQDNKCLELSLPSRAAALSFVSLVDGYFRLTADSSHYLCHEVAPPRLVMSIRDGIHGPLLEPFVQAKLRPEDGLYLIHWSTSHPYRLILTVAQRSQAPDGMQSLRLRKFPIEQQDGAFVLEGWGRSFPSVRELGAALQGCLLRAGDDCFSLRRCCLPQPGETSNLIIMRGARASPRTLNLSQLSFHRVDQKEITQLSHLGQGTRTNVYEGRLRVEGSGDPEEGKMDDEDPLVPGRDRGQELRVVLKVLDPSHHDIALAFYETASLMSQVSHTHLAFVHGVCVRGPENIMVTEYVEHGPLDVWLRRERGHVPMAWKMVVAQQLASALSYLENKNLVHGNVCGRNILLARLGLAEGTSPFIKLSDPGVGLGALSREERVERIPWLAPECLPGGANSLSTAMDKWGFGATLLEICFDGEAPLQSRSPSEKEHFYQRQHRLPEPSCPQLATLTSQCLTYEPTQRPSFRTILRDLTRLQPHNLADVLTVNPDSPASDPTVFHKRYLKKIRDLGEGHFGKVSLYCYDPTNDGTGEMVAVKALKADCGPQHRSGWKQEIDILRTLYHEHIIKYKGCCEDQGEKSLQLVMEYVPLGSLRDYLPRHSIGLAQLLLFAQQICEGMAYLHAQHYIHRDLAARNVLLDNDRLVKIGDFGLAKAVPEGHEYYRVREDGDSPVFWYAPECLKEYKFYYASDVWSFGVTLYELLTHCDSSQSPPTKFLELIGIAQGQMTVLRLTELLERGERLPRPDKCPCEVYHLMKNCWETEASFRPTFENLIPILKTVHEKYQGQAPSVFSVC
# T7 sequence (P40763 whole entry, one chain of several): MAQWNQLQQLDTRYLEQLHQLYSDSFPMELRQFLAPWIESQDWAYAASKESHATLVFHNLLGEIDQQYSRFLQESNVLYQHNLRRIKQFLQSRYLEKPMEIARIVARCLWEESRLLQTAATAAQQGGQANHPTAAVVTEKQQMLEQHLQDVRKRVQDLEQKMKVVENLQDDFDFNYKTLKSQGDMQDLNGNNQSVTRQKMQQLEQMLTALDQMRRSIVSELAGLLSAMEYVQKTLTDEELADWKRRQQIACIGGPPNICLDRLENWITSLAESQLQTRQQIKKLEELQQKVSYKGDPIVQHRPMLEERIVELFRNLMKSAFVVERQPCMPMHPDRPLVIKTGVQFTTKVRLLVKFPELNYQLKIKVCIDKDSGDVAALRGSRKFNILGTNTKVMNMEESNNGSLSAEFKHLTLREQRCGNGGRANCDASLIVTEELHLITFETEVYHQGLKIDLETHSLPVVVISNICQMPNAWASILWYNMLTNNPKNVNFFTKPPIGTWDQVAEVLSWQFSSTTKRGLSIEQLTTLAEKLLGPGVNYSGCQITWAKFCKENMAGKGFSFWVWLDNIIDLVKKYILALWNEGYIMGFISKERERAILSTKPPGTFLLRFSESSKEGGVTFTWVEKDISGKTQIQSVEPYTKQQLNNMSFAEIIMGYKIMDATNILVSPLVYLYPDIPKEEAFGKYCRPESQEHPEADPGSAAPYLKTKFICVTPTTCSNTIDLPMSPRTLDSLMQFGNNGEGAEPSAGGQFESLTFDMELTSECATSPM
# T6 sequence (P40763 whole entry, one chain of several): as above
# T1 sequence (Q16875 whole entry, one chain of several): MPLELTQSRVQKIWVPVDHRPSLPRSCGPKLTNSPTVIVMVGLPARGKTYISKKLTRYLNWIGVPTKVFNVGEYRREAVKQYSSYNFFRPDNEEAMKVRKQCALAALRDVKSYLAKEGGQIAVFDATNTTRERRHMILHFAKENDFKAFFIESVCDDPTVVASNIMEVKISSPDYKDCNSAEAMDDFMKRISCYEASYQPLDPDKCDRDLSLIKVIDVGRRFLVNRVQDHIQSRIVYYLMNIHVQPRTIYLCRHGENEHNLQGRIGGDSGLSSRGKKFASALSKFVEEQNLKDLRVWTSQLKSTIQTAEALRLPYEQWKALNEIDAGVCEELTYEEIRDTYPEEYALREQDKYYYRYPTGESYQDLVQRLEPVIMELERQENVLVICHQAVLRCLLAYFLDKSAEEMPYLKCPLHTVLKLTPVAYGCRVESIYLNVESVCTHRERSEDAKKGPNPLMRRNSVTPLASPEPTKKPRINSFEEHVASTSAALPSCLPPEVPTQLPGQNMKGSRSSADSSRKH
# T8 sequence (Q8IZL8 whole entry, one chain of several): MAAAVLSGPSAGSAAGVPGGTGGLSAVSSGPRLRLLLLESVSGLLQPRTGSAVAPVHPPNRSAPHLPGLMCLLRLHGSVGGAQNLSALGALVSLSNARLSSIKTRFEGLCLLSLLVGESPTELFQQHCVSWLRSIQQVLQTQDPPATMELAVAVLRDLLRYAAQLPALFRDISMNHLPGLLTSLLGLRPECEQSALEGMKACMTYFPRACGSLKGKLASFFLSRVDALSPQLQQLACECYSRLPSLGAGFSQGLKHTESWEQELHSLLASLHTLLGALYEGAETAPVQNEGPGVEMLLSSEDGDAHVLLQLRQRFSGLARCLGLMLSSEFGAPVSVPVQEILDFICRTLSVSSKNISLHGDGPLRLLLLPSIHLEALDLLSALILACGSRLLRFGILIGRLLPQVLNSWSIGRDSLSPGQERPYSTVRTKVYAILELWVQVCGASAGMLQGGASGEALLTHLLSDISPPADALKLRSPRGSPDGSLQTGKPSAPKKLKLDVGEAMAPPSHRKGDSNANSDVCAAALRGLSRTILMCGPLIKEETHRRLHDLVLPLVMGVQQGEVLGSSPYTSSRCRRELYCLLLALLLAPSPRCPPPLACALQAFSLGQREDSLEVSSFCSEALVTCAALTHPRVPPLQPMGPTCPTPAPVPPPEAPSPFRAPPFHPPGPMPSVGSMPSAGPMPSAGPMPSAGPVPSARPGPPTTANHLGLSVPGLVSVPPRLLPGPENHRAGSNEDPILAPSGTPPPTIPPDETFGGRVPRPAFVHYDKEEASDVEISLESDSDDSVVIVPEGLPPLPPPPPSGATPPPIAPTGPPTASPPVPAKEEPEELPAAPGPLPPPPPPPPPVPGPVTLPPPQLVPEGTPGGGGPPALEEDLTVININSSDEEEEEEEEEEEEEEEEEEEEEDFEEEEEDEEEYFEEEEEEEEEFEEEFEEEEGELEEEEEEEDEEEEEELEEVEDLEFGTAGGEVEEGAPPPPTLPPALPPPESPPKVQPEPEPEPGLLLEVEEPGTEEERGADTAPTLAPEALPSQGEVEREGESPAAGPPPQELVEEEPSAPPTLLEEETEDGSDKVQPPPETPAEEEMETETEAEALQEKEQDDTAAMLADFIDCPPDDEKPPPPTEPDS
# T2 sequence (P16615 whole entry, one chain of several): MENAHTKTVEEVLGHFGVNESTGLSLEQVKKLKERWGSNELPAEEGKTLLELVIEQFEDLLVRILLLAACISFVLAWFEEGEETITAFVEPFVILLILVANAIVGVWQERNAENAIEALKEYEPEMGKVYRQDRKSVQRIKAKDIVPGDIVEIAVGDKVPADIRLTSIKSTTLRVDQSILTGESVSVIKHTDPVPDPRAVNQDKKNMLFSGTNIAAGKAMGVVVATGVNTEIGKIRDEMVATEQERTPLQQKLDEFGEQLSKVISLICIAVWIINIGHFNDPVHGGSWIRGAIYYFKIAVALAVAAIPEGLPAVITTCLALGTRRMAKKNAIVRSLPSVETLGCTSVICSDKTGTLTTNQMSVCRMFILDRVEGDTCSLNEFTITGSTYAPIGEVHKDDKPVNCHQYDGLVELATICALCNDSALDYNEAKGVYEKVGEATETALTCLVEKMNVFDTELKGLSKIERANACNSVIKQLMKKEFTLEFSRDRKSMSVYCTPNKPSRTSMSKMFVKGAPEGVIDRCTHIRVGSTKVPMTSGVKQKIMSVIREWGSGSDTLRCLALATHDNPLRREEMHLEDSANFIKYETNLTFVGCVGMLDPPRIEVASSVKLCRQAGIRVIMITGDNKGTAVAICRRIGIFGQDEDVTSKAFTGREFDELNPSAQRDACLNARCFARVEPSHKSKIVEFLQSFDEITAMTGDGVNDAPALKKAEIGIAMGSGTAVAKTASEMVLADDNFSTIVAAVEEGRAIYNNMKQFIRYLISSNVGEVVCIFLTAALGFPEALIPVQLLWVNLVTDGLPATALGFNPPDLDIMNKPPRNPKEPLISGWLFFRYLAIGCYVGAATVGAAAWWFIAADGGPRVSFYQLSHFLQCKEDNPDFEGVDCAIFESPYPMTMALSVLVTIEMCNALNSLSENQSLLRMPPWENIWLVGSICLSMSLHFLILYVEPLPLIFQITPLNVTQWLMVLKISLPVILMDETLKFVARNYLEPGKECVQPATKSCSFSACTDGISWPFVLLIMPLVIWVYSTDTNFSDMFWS
SMILES,Cysteine reactivity proteomic data ([1]; 100 μM),Cysteine reactivity proteomic data ([1]; 500 μM),Cysteine reactivity proteomic data [2]; 100,Cysteine reactivity proteomic data ([3]; 100 μM),Cysteine reactivity proteomic data ([3]; 500 μM),Cysteine reactivity proteomic data [4]; 100,Cysteine reactivity proteomic data ([5]; 100 μM),Cysteine reactivity proteomic data ([5]; 500 μM),Cysteine reactivity proteomic data ([6]; 100 μM),Cysteine reactivity proteomic data ([6]; 500 μM),Cysteine reactivity proteomic data ([7]; 100 μM),Cysteine reactivity proteomic data ([7]; 500 μM),Cysteine reactivity proteomic data [8]; 100,Cysteine reactivity proteomic data ([2]; 500 μM),Cysteine reactivity proteomic data ([4]; 500 μM),Cysteine reactivity proteomic data ([8]; 500 μM)
O=C(CCl)N1CCN(S(=O)(=O)c2ccc(-c3ccncc3)cc2)CC1 [Compound B9],26.69,90.3507,22.19,16.62,84.5074,82.88,78.9759,98.8468,42.3797,73.3713,64.9054,69.5373,71.33,,,
C=CC(=O)N(Cc1cccc(Cl)c1Cl)c1ccc(Oc2ccccc2)c(C(F)(F)F)c1 [Compound K4],,−24.3435,,,28.7525,,,22.4158,,13.6326,,12.6621,,61.48,6.5,1.71
